Measured values taken from patent US11047861B2, “Cellular assays with a molecular endpoint measured by SAMDI mass spectrometry” (NORTHWESTERN UNIVERSITY, priority 2015, dated 2021).

Experiments:
[1] = system: protein tyrosine phosphatase (PTP); assay: TCAL-SAMDI assay of PTP activity, inhibitors applied to cells cultured on the monolayer; format: cell-based
Protocol: HeLa cells and MDA-MB-231 cells were obtained from ATCC and cultured in αMEM (for HeLa cells) or high-glucose DMEM (for MDA-MB-231 cells) medium supplemented with 10% fetal bovine serum, glutamax, penicillin and streptomycin. All cells were cultured in a humidified incubator at 37° C. and CO2. Cells were trypsinized and suspended in media, and the average number of cells per μL was counted using a hemocytometer and Countess automated cell counter (Life Technologies), and cell concentrations were adjusted to seed the desired number of cells per spot in 3 μL media. Cells were cultured on the monolayers presenting RGD and peptide substrates on steel plates or glass slides for two hours under standard growth conditions. For PTP activity assays, cells were cultured for two hours before addition of inhibitors, if any. […] A 30 mg/mL solution of 2,4,6-trihydroxyacetophenone in acetone was delivered to each spot on the array and the surfaces were analyzed using an AB Sciex 5800 MALDI TOF/TOF instrument in positive reflector mode. The area under the curves for the [M+H]^+ peaks of disulfides was measured with the Data Explorer software (AB Sciex). […]
MDA-MB-231 cells were seeded at 75 cells per spot on monolayers presenting phosphatase peptide substrates and cyclic RGD as described above. […] IC50 values and curves were determined using GraphPad prism software.

[2] = system: protein tyrosine phosphatase (PTP); assay: SAMDI assay of PTP activity in cell lysate treated with inhibitor and applied to the monolayer; format: biochemical; settings: treatment of MDA-MB-231 cell lysate (rather than cells), read-out: PTP inhibition, IC50
Protocol: MDA-MB-231 cells were lysed using the lysis buffer containing protease inhibitor described above to achieve the equivalent of 75 cells per 1.5 μL, after mixing with inhibitor solutions. Inhibitor solutions in lysis buffer at concentrations ranging from 0 to 640 μM were added to the lysate and 1.5 μL of the mixture was spotted on monolayers presenting cyclic RGD and phosphatase substrate. The reaction was carried out for 1 hour at 37° C. in a humidified chamber. To evaluate dose-response inhibition under standard culture conditions, MDA-MB-231 cells were plated on a 96-well plate at a density of 6,400 cells per well and cultured for two hours. Culture medium containing inhibitors at final concentrations ranging from 0 to 300 μM and 1% DMSO were delivered to each well and culture proceeded for another two hours. The mixture containing media and inhibitor was removed from each well and centrifuged. Lysis buffer containing protease inhibitor was applied to each well in the plate and incubated for 10 minutes at room temperature. The lysate was collected and added to the corresponding cell pellet for each inhibitor concentration sample. […] Protein concentrations were measured using a BCA assay (Santa Cruz Biotechnology), following manufacturer instructions. […] IC50 values and curves were determined using GraphPad prism software.

Row | Compound | PTP inhibition ([1]; treatment of cells, inhibitor concentration up to 160 μM) | IC50 [2] | IC50 ([1]; treatment of cultured MDA-MB-231 cells on monolayer for two hours, then lysis in place, read-out: inhibition of PTP activity, IC50)
1 | O=C1C(=NNc2ccc(S(=O)(=O)O)cc2)C(c2ccc([N+](=O)[O-])cc2)=NN1c1ccccc1 [PHPS1] | did not show PTP inhibition | 75 µM | –
2 | O=C(CBr)c1ccc(O)cc1 [PTPI-I] | – | 83 µM | 14 µM
